Measured values taken from patent publication US8778937B2, “Benzimidazole boronic acid derivatives as PI3 kinase inhibitors” (GlaxoSmithKline LLC, priority 2011, dated 2014).

How the values were obtained:
[1] = system: MDA-MB-468; experiment: Cell growth inhibition in PTEN-deficient cell line MDA-MB-468, anchorage independent, Alamar Blue; type: cell-based; conditions: Homo sapiens, 144 h, MDA-MB-468, anchorage independent (soft agar), 6 days incubation, read-out: Prolif EC50 (nM) MDA-MB-468
Protocol: Cellular Assays—Cell Growth Inhibition in PTEN-Deficient Cell Line MDA-MB-468
PTEN deficient tumor cell lines (MDA-MB-468) were cultured generally according to instructions supplied by cell culture supplier American Type Culture Collection, Manassas, Va., with 10% fetal bovine serum at 5% CO2 and 37° C. Cells were seeded into either a T-75 or a T-175 flask 3-4 days prior to 96-well assay plating such that the flasks were approximately 70-80% confluent of the time of harvest. Cells were harvested using 0.25% trypsin-EDTA (Invitrogen #25200056). Trypan Blue exclusion staining was used to determine cell number.
Viable cells were plated in clear, flat bottom 96-well plates (BD #353075) under anchorage independent conditions at 2,000-10,000 cells per well depending on the cell line. To generate anchorage independent growth conditions, a 5% agar stock solution in water was made and autoclaved to melt and sterilize. From the 5% agar solution, a 0.6% agar/media+10% fetal bovine serum (FBS) solution was made to generate a bottom agar layer in the plates to prevent cell attachment. Seventy five microliters per well of the 0.6% agar-media solution was added to the plates. After solidification, a cell solution of 266,870 to 1,334,022 cells (depending on the cell line) in 10 ml of 0.3% agar/media+10% FBS was made and 75 μl of the cell/media/agar suspension was added to the plates. After the cell layer solidified, 50 μl of media+10% FBS was added to the top of the cells. A 0.3% Brij 35 (Sigma B4184) solution in media+10% FBS was added to column 12 as a background subtraction control. The cells were incubated overnight at 5% CO2 and 37° C. The next day one plate of cells was processed at the time of compound addition to quantify the starting number of cells (T=0 or T0).
To generate the compound titration plates, 15 μl of a 2 mM or 20 μl of a 20 mM solution of the compound of example 31 was diluted in clear bottom polypropylene 96-well plate (BD #351190) using a 10 point, 3-fold titration or a 20 point 2-fold titration, respectively. Three hundred microliters of media was added to the compound dilutions. Ten microliters per well of the serial dilutions was added to the cells and the plates incubated for 6 days at 5% CO2 and 37° C. The final concentration of DMSO in all wells was 0.15% and the highest final concentration of the compound of example 31 was 3.7 μM or 30.7 μM.
Following the 6-day incubation, 20 μl of Alamar Blue (Invitrogen #DAL1100) was added to the cells, incubated at 5% CO2 and 37° C. for 6 hours and the plates read on a Spectramax (Gemini EM) at 530 nm (excitation) and 590 nm (emission) with the auto cut-off disabled. For analysis of cell growth inhibition dose response curves, the data was plotted as the percent of the DMSO-treated control samples (DMSO samples set to 100%). The cellular response was determined for compounds and control compounds by fitting the concentration response with a 4 parameter curve fit using XLfit software and determining the concentration that inhibits 50% of the Ymax-Ymin window (EC50). The EC50 is the midpoint of active compound effect window (between Ymax plateau and Ymin plateau of compound) and represents the concentration of the compound of example 31 where 50% of its maximal effect is observed. Values from wells containing 0.3% Brij 35 (under anchorage independent conditions) were subtracted from all samples for background correction.
The compounds listed in Table 3 were tested generally according to the assays described herein. Table 3 lists the EC50 values for either an experimental run or an average of two or more experimental runs with the examples shown.

[2] = system: phosphorylation of AKT in MDA-MB-468 tumor cells; experiment: Inhibition of phosphorylation of AKT (Ser473, MSD) in PTEN deficient tumor cell line MDA-MB-468; type: cell-based; conditions: Homo sapiens, 0.5 h; MDA-MB-468 cells, 30 minutes compound treatment, Ser473-pAKT normalized to total AKT
Protocol: Cellular Assays—Inhibition of Phosphorylation of AKT in PTEN Deficient Tumor Cell Line MDA-MB-468
Compounds were evaluated for their ability to inhibit downstream phosphorylation of AKT in MDA-MB-468 tumor cells. Breast cancer cells were plated, incubated for approximately 16-20 hours and then treated with compound for 30 minutes. Final DMSO concentration on all cells was 0.15%. The cells were washed with Tris buffer and lysed in MesoScale Discovery (MSD) lysis buffer containing protease and phosphatase inhibitors (included in MSD kit). MSD Ser473-AKT duplex plates (Cat # MS6000) were used according to the manufacturer's instructions and plates were read on a SECTOR™ Imager 6000 using MSD Workbench software. For analysis of the Ser473-pAKT concentration response curves, the data was normalized using the corresponding total AKT value (sum of pAKT and AKT signal) and plotted as the percent of the DMSO-treated control values. The data was fit in Graphpad Prism version 4 for Windows (Graphpad Software, San Diego, Calif.).
The compounds listed in Table 2 were tested generally according to the assays described herein. Table 2 lists the IC50 values for either an experimental run or an average of two or more experimental runs with the examples shown.

EC50 [1] | SMILES | IC50 [2]
11.1 nM | Cc1c(Cn2c(C)nc3c(B(O)O)cc(N4CCOCC4)cc32)cccc1C(F)(F)F [Example 4, (2-methyl-1-(2-methyl-3-(trifluoromethyl)benzyl)-6-morpholino-1H-benzo[d]imidazol-4-yl)boronic acid] | 18.7 nM
6.7 nM | Cc1c(Cl)cccc1Cn1c(C)nc2c(B(O)O)cc(N3CCOCC3)cc21 [Example 5, (1-(3-chloro-2-methylbenzyl)-2-methyl-6-morpholino-1H-benzo[d]imidazol-4-yl)boronic acid] | 8.97 nM
22.3 nM | Cc1nc2c(B(O)O)cc(N3CCOCC3)cc2n1Cc1cccc2ccccc12 [Example 6, (2-methyl-6-morpholino-1-(naphthalen-1-ylmethyl)-1H-benzo[d]imidazol-4-yl)boronic acid] | 78.2 nM
18.3 nM | Cc1cccc(Cn2c(C)nc3c(B(O)O)cc(N4CCOCC4)cc32)c1C [Example 7, (1-(2,3-dimethylbenzyl)-2-methyl-6-morpholino-1H-benzo[d]imidazol-4-yl)boronic acid] | 45.6 nM
42 nM | Cc1nc2c(B(O)O)cc(N3CCOCC3)cc2n1Cc1cccc(Cl)c1Cl [Example 8, (1-(2,3-dichlorobenzyl)-2-methyl-6-morpholino-1H-benzo[d]imidazol-4-yl)boronic acid] | 61 nM
88.2 nM | Cc1nc2c(B(O)O)cc(N3CCOCC3)cc2n1Cc1cccc2ccsc12 [Example 9] | 65.8 nM
1880 nM | Cc1cccc(Cn2c(C)nc3c(B(O)O)cc(N4CCOCC4)cc32)c1 [Example 10, (2-methyl-1-(3-methylbenzyl)-6-morpholino-1H-benzo[d]imidazol-4-yl)boronic acid] | 672 nM
1140 nM | Cc1ccccc1Cn1c(C)nc2c(B(O)O)cc(N3CCOCC3)cc21 [Example 11, (2-methyl-1-(2-methylbenzyl)-6-morpholino-1H-benzo[d]imidazol-4-yl)boronic acid] | 227 nM
3580 nM | Cc1nc2c(B(O)O)cc(N3CCOCC3)cc2n1Cc1ccccc1Cl [Example 12, (1-(2-chlorobenzyl)-2-methyl-6-morpholino-1H-benzo[d]imidazol-4-yl)boronic acid] | 1490 nM
246 nM | Cc1nc2c(B(O)O)cc(N3CCOCC3)cc2n1Cc1cccc(Cl)c1 [Example 13, (1-(3-chlorobenzyl)-2-methyl-6-morpholino-1H-benzo[d]imidazol-4-yl)boronic acid] | 105 nM
62.8 nM | Cc1c(Cn2cnc3c(B(O)O)cc(N4CCOCC4)cc32)cccc1C(F)(F)F [Example 14, (1-(2-methyl-3-(trifluoromethyl)benzyl)-6-morpholino-1H-benzo[d]imidazol-4-yl)boronic acid] | 24.4 nM
60 nM | Cc1c(Cl)cccc1Cn1cnc2c(B(O)O)cc(N3CCOCC3)cc21 [Example 15, (1-(3-chloro-2-methylbenzyl)-6-morpholino-1H-benzo[d]imidazol-4-yl)boronic acid] | 7.95 nM
21.5 nM | Cc1c(Cn2c(CF)nc3c(B(O)O)cc(N4CCOCC4)cc32)cccc1C(F)(F)F [Example 16, (2-(fluoromethyl)-1-(2-methyl-3-(trifluoromethyl)benzyl)-6-morpholino-1H-benzo[d]imidazol-4-yl)boronic acid] | 19.1 nM
17.8 nM | Cc1c(Cl)cccc1Cn1c(CF)nc2c(B(O)O)cc(N3CCOCC3)cc21 [Example 17, (1-(3-chloro-2-methylbenzyl)-2-(fluoromethyl)-6-morpholino-1H-benzo[d]imidazol-4-yl)boronic acid] | 14.5 nM
13.5 nM | Cc1c(Cn2c(CO)nc3c(B(O)O)cc(N4CCOCC4)cc32)cccc1C(F)(F)F [Example 18, (2-(hydroxymethyl)-1-(2-methyl-3-(trifluoromethyl)benzyl)-6-morpholino-1H-benzo[d]imidazol-4-yl)boronic acid] | 6.35 nM
31.5 nM | Cc1c(Cl)cccc1Cn1c(C(F)F)nc2c(B(O)O)cc(N3CCOCC3)cc21 [Example 19, (1-(3-chloro-2-methylbenzyl)-2-(difluoromethyl)-6-morpholino-1H-benzo[d]imidazol-4-yl)boronic acid] | 70.9 nM
39.8 nM | Cc1c(Cn2c(C(F)F)nc3c(B(O)O)cc(N4CCOCC4)cc32)cccc1C(F)(F)F [Example 20, (2-(difluoromethyl)-1-(2-methyl-3-(trifluoromethyl)benzyl)-6-morpholino-1H-benzo[d]imidazol-4-yl)boronic acid] | 40.1 nM
130 nM | Cc1c(Cl)cccc1Cn1c(C(F)(F)F)nc2c(B(O)O)cc(N3CCOCC3)cc21 [Example 21, (1-(3-chloro-2-methylbenzyl)-6-morpholino-2-(trifluoromethyl)-1H-benzo[d]imidazol-4-yl)boronic acid] | 92.9 nM
161 nM | Cc1c(Cn2c(C(C)C)nc3c(B(O)O)cc(N4CCOCC4)cc32)cccc1C(F)(F)F [Example 22, (2-isopropyl-1-(2-methyl-3-(trifluoromethyl)benzyl)-6-morpholino-1H-benzo[d]imidazol-4-yl)boronic acid] | 74.6 nM
126 nM | Cc1c(Cn2c(C3CC3)nc3c(B(O)O)cc(N4CCOCC4)cc32)cccc1C(F)(F)F [Example 23, (2-cyclopropyl-1-(2-methyl-3-(trifluoromethyl)benzyl)-6-morpholino-1H-benzo[d]imidazol-4-yl)boronic acid] | 56.2 nM
